Species on record: Rattus norvegicus
Assay: DrugMatrix - Regimen: Daily Repeat
Format: toxicity, organism-based, Sprague-Dawley
Set-up: regimen Daily Repeat, gender Male, age 6-8 weeks
Conditions: in vivo, iv, 34 mg/kg, dose level High, vehicle 100 % SALINE; for ABSOLUTE BASOPHIL / ABSOLUTE EOSINOPHIL / ABSOLUTE LYMPHOCYTE / ABSOLUTE MONOCYTE / ABSOLUTE SEGMENTED NEUTROPHIL / BASOPHIL / EOSINOPHIL / ERYTHROCYTE COUNT / HEMATOCRIT / HEMOGLOBIN / LEUKOCYTE COUNT / LYMPHOCYTE / MEAN CORPUSCULAR HEMOGLOBIN / MEAN CORPUSCULAR HEMOGLOBIN CONCENTRATION / MEAN CORPUSCULAR VOLUME / MONOCYTE / NEUTROPHIL / NUCLEATED RED BLOOD CELLS / PLATELET COUNT: tissue Blood; for ALANINE AMINOTRANSFERASE / ALBUMIN / ALKALINE PHOSPHATASE / ASPARTATE AMINOTRANSFERASE / BLOOD UREA NITROGEN / CARBON DIOXIDE / CHLORIDE / CHOLESTEROL / CREATINE PHOSPHOKINASE / CREATININE / GLUCOSE / LACTATE DEHYDROGENASE / LIPASE / PHOSPHORUS / POTASSIUM / SODIUM / TOTAL BILIRUBIN / TOTAL PROTEIN / URIC ACID: tissue Plasma

CN[C@@H]1[C@@H](O)[C@@H](O[C@@H]2[C@@H](O)[C@H](O[C@H]3OC(CN)=CC[C@H]3N)[C@@H](N)C[C@H]2N)OC[C@]1(C)O [SISOMICIN]
ABSOLUTE BASOPHIL (72 h, time 3 day): 0 CELLS/uL
ABSOLUTE EOSINOPHIL (72 h, time 3 day): 0 CELLS/uL
ABSOLUTE LYMPHOCYTE (72 h, time 3 day): 14608 CELLS/uL
ABSOLUTE MONOCYTE (72 h, time 3 day): 68 CELLS/uL
ABSOLUTE SEGMENTED NEUTROPHIL (72 h, time 3 day): 824 CELLS/uL
BASOPHIL (72 h, time 3 day): 0%
EOSINOPHIL (72 h, time 3 day): 0%
ERYTHROCYTE COUNT (72 h, time 3 day): 5.47 x10E6/uL
HEMATOCRIT (72 h, time 3 day): 35.6%
HEMOGLOBIN (72 h, time 3 day): 14.07 G/DL
LEUKOCYTE COUNT (72 h, time 3 day): 15.5 x10E3/uL
LYMPHOCYTE (72 h, time 3 day): 94.67%
MEAN CORPUSCULAR HEMOGLOBIN (72 h, time 3 day): 25.73 pg
MEAN CORPUSCULAR HEMOGLOBIN CONCENTRATION (72 h, time 3 day): 39.53 G/DL
MEAN CORPUSCULAR VOLUME (72 h, time 3 day): 65.13 fL
MONOCYTE (72 h, time 3 day): 0.33%
NEUTROPHIL (72 h, time 3 day): 5%
NUCLEATED RED BLOOD CELLS (72 h, time 3 day): 0 /100WBC
PLATELET COUNT (72 h, time 3 day): 1451.67 x10E3/uL
ALANINE AMINOTRANSFERASE (72 h, time 3 day): 52.33 u/L
ALBUMIN (72 h, time 3 day): 4.2 G/DL
ALKALINE PHOSPHATASE (72 h, time 3 day): 295 u/L
ASPARTATE AMINOTRANSFERASE (72 h, time 3 day): 81.67 u/L
BLOOD UREA NITROGEN (72 h, time 3 day): 17.67 mg/dL
CARBON DIOXIDE (72 h, time 3 day): 24 mmol/L
CHLORIDE (72 h, time 3 day): 102.33 MEQ/L
CHOLESTEROL (72 h, time 3 day): 66.33 mg/dL
CREATINE PHOSPHOKINASE (72 h, time 3 day): 204.33 u/L
CREATININE (72 h, time 3 day): 0.22 mg/dL
GLUCOSE (72 h, time 3 day): 150.67 mg/dL
LACTATE DEHYDROGENASE (72 h, time 3 day): 135.33 u/L
LIPASE (72 h, time 3 day): 10.33 u/L
PHOSPHORUS (72 h, time 3 day): 11.77 mg/dL
POTASSIUM (72 h, time 3 day): 6.49 MEQ/L
SODIUM (72 h, time 3 day): 144.2 MEQ/L
TOTAL BILIRUBIN (72 h, time 3 day): 0.17 mg/dL
TOTAL PROTEIN (72 h, time 3 day): 6 G/DL
URIC ACID (72 h, time 3 day): 1.27 mg/dL
ABSOLUTE BASOPHIL (120 h, time 5 day): 0 CELLS/uL
ABSOLUTE EOSINOPHIL (120 h, time 5 day): 136 CELLS/uL
ABSOLUTE LYMPHOCYTE (120 h, time 5 day): 16493.67 CELLS/uL
ABSOLUTE MONOCYTE (120 h, time 5 day): 81 CELLS/uL
ABSOLUTE SEGMENTED NEUTROPHIL (120 h, time 5 day): 1222.67 CELLS/uL
BASOPHIL (120 h, time 5 day): 0%
EOSINOPHIL (120 h, time 5 day): 1%
ERYTHROCYTE COUNT (120 h, time 5 day): 5.67 x10E6/uL
HEMATOCRIT (120 h, time 5 day): 37.07%
HEMOGLOBIN (120 h, time 5 day): 14.6 G/DL
LEUKOCYTE COUNT (120 h, time 5 day): 17.93 x10E3/uL
LYMPHOCYTE (120 h, time 5 day): 92%
MEAN CORPUSCULAR HEMOGLOBIN (120 h, time 5 day): 25.73 pg
MEAN CORPUSCULAR HEMOGLOBIN CONCENTRATION (120 h, time 5 day): 39.43 G/DL
MEAN CORPUSCULAR VOLUME (120 h, time 5 day): 65.3 fL
MONOCYTE (120 h, time 5 day): 0.33%
NEUTROPHIL (120 h, time 5 day): 6.67%
NUCLEATED RED BLOOD CELLS (120 h, time 5 day): 0 /100WBC
PLATELET COUNT (120 h, time 5 day): 1387.67 x10E3/uL
ALANINE AMINOTRANSFERASE (120 h, time 5 day): 44 u/L
ALBUMIN (120 h, time 5 day): 4.3 G/DL
ALKALINE PHOSPHATASE (120 h, time 5 day): 391.67 u/L
ASPARTATE AMINOTRANSFERASE (120 h, time 5 day): 71.67 u/L
BLOOD UREA NITROGEN (120 h, time 5 day): 15.67 mg/dL
CARBON DIOXIDE (120 h, time 5 day): 22.33 mmol/L
CHLORIDE (120 h, time 5 day): 103.67 MEQ/L
CHOLESTEROL (120 h, time 5 day): 57.33 mg/dL
CREATINE PHOSPHOKINASE (120 h, time 5 day): 158 u/L
CREATININE (120 h, time 5 day): 0.22 mg/dL
GLUCOSE (120 h, time 5 day): 155 mg/dL
LACTATE DEHYDROGENASE (120 h, time 5 day): 130.67 u/L
LIPASE (120 h, time 5 day): 10 u/L
PHOSPHORUS (120 h, time 5 day): 12.63 mg/dL
POTASSIUM (120 h, time 5 day): 6.57 MEQ/L
SODIUM (120 h, time 5 day): 145.93 MEQ/L
TOTAL BILIRUBIN (120 h, time 5 day): 0.27 mg/dL
TOTAL PROTEIN (120 h, time 5 day): 6.17 G/DL
URIC ACID (120 h, time 5 day): 1.63 mg/dL

Source: ChEMBL document CHEMBL3885881, “DrugMatrix”
